Laboratory results taken from patent publication US20260221482A1, “REDOX FLOW BATTERY” (CAMBRIDGE ENTERPRISE LIMITED, priority 2023, published 2026).

Columns and labels:
Assay type in all cases: physicochemical
[1] = Additional cyclic voltammetry under nitrogen and under air; conditions: 1 mM, 0.1 M NaCl
Experimental: Cyclic voltammetry experiments were carried out for aqueous solutions of compound 20 and 10 at 25° C. and a concentration of 1 mM in 0.1 M NaCl with a Metrohm Eco Chemie Autolab PGSTAT12 potentiostat, working on GPES 4.9 software. Where the CV was carried out under nitrogen the solution was purged with nitrogen. A three-electrode configuration was used with a 3 mm glassy carbon working electrode, a platinum counter electrode, and RE-5B Ag/AgCl BASI reference electrode. The glassy carbon electrode was polished before each measurement using a 0.05 μm alumina-H2O slurry on a polishing cloth. CV was performed using a scan rate of 20 mV s^−1.

[2] = Cyclic voltammetry in N2 purged 0.1 M NaCl aqueous solutions; conditions: 1 mM
Experimental: Cyclic voltammetry experiments were carried out at 25° C. in N2 purged 0.1 M NaCl aqueous solutions with a Metrohm Eco Chemie Autolab PGSTAT12 potentiostat, working on GPES 4.9 software. A three-electrode configuration was used with a 3 mm or 1.6 mm glassy carbon working electrode, a platinum counter electrode, and RE-5B Ag/AgCl BASI reference electrode. The glassy carbon electrode was polished before each measurement using a 0.05 μm alumina-H2O slurry on a polishing cloth. CV was performed at 1 mM concentrations of the respective compound using a scan rate of 20 mV s^−1.

[3] = Rates of electron transfer
[4] = In situ DOSY NMR of flowing electrolyte at various SOCs; conditions: diffusivity
Experimental: Pseudo-2D NMR experiments were performed on the flowing electrolyte solution by direct excitation with a 90° radiofrequency pulse. Each NMR spectrum is acquired by collecting eight free induction decays with a recycle delay of 15 s. The pulse width for a 90° pulse was 27 μs at 30 W. All spectra were referenced to the water chemical shift at 4.79 ppm. NMR data were processed using TopSpin 3.6.3 (Bruker). EPR data were processed using EasySpin version 5.2.30. Electrochemical data were processed using EC-lab 11.36 (BioLogic).
The flow was stopped during the acquisition period (12 min) to carry out the DOSY NMR.
In situ DOSY NMR experiments carried out for 10, 11, and 13 at 0%, 50%, and 100% SOC (Table 1).

[5] = EPR and CV modelling studies of redox equilibria (comproportionation, π-dimerisation); conditions: for Kc from CV: comproportionation equilibrium constant from CV curve fitting; for Kd: equilibrium constant of π-dimerisation of singly reduced form, estimated at 50% SOC; for Kc, obs from EPR: observed comproportionation equilibrium constant, fit of spin counting radical fraction
Experimental: An analysis of compounds 10, 11, and 13 associated redox equilibria was carried out. Expressing the two single electron reductions as a comproportionation equilibrium with an equilibrium constant of comproportionation, Kc, an equation for radical fraction as a function of battery SOC was obtained.
The difference between redox events is related to the comproportionation equilibrium constant Kc by:
For the compounds comproportionation equilibrium:
fits to experimental radical concentration data were obtained by:
Where n is the number of electrons that have been removed from the system, starting from 100% SOC and x is the fraction of radicals.
For π-dimerisation equilibria, Kd values were estimated as follows. At 50% SOC, 1 electron equivalent of the starting concentration of viologen, V0, has been added to create reduced species, thus giving the previous result:
As the initial concentration (V0), Kc and the radical concentration (V^3+·) at this state of charge is known, the dimerisation constant can be calculated with:
This equation was used to fit experimental radical fraction data obtained by the EPR-based method of spin counting, from which the observed comproportionation equilibrium constant Kc,obs was extracted. Upon fitting, Kc,obs values of 0.75, 0.021 and 0.0021 were found for 10, 11, and 13, respectively (Table 2).
The equation was also used for CV curve fitting, from which much better agreement with experimental data was obtained. Relating the difference in first and second redox events obtained by CV curve fitting to Kc, ‘true’ Kc values could be estimated and compared to Kc,obs values. Respective Ko values for 10, 11, and 13 were 3.2×10^5, 1.3 and 2.9 (see Table 2)—substantially higher than the Kc,obs values. […] The strongest candidates for these are dimerisation equilibria.

## C[N+](C)(C)c1ccc(-[n+]2ccc(-c3cc[n+](-c4ccc([N+](C)(C)C)cc4)cc3)cc2)cc1 [Compound 20]
[1]
  tolerance to oxygen (voltammogram under nitrogen vs under air): highly tolerant to the presence of oxygen
[1]; vs SHE, 25° C., 20 mV s^−1
  reversible reduction potential, first: −0.147 V
  reversible reduction potential, second: −0.386 V

## C[N+](C)(C)CCC[n+]1ccc(-c2c3ccccc3c(-c3cc[n+](CCC[N+](C)(C)C)cc3)c3ccccc23)cc1 [Compound 15]
[2]
  redox reversibility by cyclic voltammetry: electrochemically irreversible

## C[N+](C)(C)CCC[n+]1ccc(-c2cccc(-c3cc[n+](CCC[N+](C)(C)C)cc3)n2)cc1 [Compound 19]
[2]
  redox reversibility by cyclic voltammetry: does not have a reversible potential

## C[N+](C)(C)CCC[n+]1ccc(-c2ccc3ccc(-c4cc[n+](CCC[N+](C)(C)C)cc4)cc3c2)cc1 [Compound 14]
[2]
  redox reversibility by cyclic voltammetry: does not have a reversible potential

## C[N+](C)(C)CCC[n+]1ccc(-c2ccc(-c3ccc(-c4cc[n+](CCC[N+](C)(C)C)cc4)cc3)cc2)cc1 [Compound 16]
[2]
  redox reversibility by cyclic voltammetry: electrochemically irreversible

## C[N+](C)(C)CCC[n+]1ccc(-c2ccc(-c3cc[n+](CCC[N+](C)(C)C)cc3)c3ccccc23)cc1 [Compound 12]
[2]
  redox reversibility by cyclic voltammetry: reversible redox processes

## C[N+](C)(C)CCC[n+]1ccc(-c2ccc(-c3ccc(-c4cc[n+](CCC[N+](C)(C)C)cc4)s3)s2)cc1 [Compound 18]
[2]
  redox reversibility by cyclic voltammetry: reversible redox processes

## C[N+](C)(C)CCC[n+]1ccc(-c2ccc(-c3cc[n+](CCC[N+](C)(C)C)cc3)s2)cc1 [Compound 17]
[2]
  redox reversibility by cyclic voltammetry: reversible redox processes
[2]; vs SHE, 25° C., 20 mV s^−1
  reversible potential, second reduction: −0.67 V
[3]
  rate of electron transfer k0: 0.0028 cm/s

## C[N+](C)(C)CCC[n+]1ccc(-c2ccc3cc(-c4cc[n+](CCC[N+](C)(C)C)cc4)ccc3c2)cc1 [Compound 13]
[2]
  redox reversibility by cyclic voltammetry: reversible redox processes
[4]
  D at 0% SOC: 2.8 ± 0.1 ×10^−10 m^2 s^−1
  D at 50% SOC: 1.9 ± 0.2 ×10^−10 m^2 s^−1
  D at 100% SOC: 2.1 ± 0.5 ×10^−10 m^2 s^−1
[5]
  average Kc extracted from the radical concentration: 0.002
  Kc from CV: 2.9
  Kd: 76 mM⁻¹
  Kc, obs from EPR: 0.0021

## C[N+](C)(C)CCC[n+]1ccc(-c2cc[n+](CCC[N+](C)(C)C)cc2)cc1 [Compound 10]
[2]
  redox reversibility by cyclic voltammetry: reversible redox processes
[2]; vs SHE, 25° C., 20 mV s^−1
  reversible potential, first reduction: −0.35 V
  reversible potential, second reduction: −0.68 V
[4]
  D at 0% SOC: 3.6 ± 0.1 ×10^−10 m^2 s^−1
  D at 50% SOC: 3.6 ± 0.2 ×10^−10 m^2 s^−1
  D at 100% SOC: 3.4 ± 0.1 ×10^−10 m^2 s^−1
[5]
  average Kc extracted from the radical concentration: 0.7
  Kc from CV: 3.2×10^5
  Kd: 0.28 mM⁻¹
  Kc, obs from EPR: 0.75

## O=O [Compound O2, dioxygen]
[3]
  rate of electron transfer k0: 0.00084 cm/s

## C[N+](C)(C)CCC[n+]1ccc(-c2ccc(-c3cc[n+](CCC[N+](C)(C)C)cc3)cc2)cc1 [Compound 11]
[2]
  redox reversibility by cyclic voltammetry: reversible redox processes
[4]
  D at 0% SOC: 3.1 ± 0.1 ×10^−10 m^2 s^−1
  D at 50% SOC: 2.4 ± 0.2 ×10^−10 m^2 s^−1
  D at 100% SOC: 1.6 ± 0.1 ×10^−10 m^2 s^−1
[5]
  average Kc extracted from the radical concentration: 0.2
  Kc from CV: 1.3
  Kd: 11 mM⁻¹
  Kc, obs from EPR: 0.021
[3]
  rate of electron transfer k0: 0.0198 cm/s
